Reference: patent publication US6958318B2, “Recombinant bacterial cells for delivery of PNP to tumor cells” (The UAB Research Foundation, priority 1993, dated 2005)
“And” between values parts separate entries of the source, which are not always exact repeats. Identical values can stand only once. “Also recorded” adds a separate entry of the source.

How the values were obtained:
[1] = system: T-84 colon carcinoma cells; assay: Toxicity of MeP and MeP-dR in untransfected T-84 cells; format: cell-based, human
Procedure: T-84 colon carcinoma cells were grown in Dulbecco's modified Eagle medium containing F12 nutrient medium (DMEM/F12) (GIBCO/BRL, Gaithersburg, Md.) in 6 well trays to a density of approximately […] (−20% confluency).
Untransfected T-84 colon carcinoma cells were treated with increasing concentrations of either MeP-dR or MeP. After 5 days the cells were removed from each well and the number of dye excluding cells were determined with the aid of a hemacytometer. Cells were studied both at passage 48 (p. 48) and passage 61 (p. 61). MeP was obtained from Sigma Chemical Company (St. Louis, Mo.). MeP-dR was synthesized by standard methods as described (J. A. Montgomery and K. Howson, J. Med. Chem., 11:48-52 (1968)). The nucleoside and base were dissolved in serum free DMEM/F12 at a concentration of 1 mg/ml and added directly to 1 ml DMEM/F12 with 10% fetal bovine serum at the concentrations described below in order to cover 1-2×10^5 cells/well.
Initial cytopathic effects due to MeP were observed within 24 hours (for example, rounding of cells, with some cells detaching from plate). Viable cells were counted 5 days following addition of drug. […] Trypan blue exclusion was used to confirm viability in cells retaining recognizable structure at all concentrations studied. […] If the toxicity of MeP-dR is due to very low levels of liberation of MeP by human PNP, then combination with selective inhibitors of human PNP could prevent this toxicity.

[2] = system: Mel-1 cells; assay: Wild type melanoma cell viability; format: cell-based, human; conditions: concentrations as low as 0.5 μg/ml, five days
[3] = system: CEM cells; assay: Toxicity to nondividing CEM cells (1% serum); format: cell-based; conditions: 10 μg/ml, non-proliferating cells in 1% serum
Procedure: Results from experiments indicate that MeP is able to kill non-proliferating cells. This distinguishes MeP from most other antitumor agents. In the first experiment, CEM cells were cultured in 1% serum instead of the normal 10% serum for 48 hours. Under these conditions, the cells stop growing and the cell numbers stabilize at 1.5 to 2 times the original cell numbers. Cell growth continues when cells are returned to culture medium containing 10% serum.

[4] = system: CF PAC (human pancreatic adenocarcinoma) cells; assay: Intratumoral MeP in established human pancreatic tumors in SCID mice; format: in vivo; conditions: once a day for three days
Procedure: CF PAC (human pancreatic adenocarcinoma) cells were grown in T75 flasks, trypsinized, washed with PBS and then inoculated subcutaneously into female SCID mice at approximately 2×10^7 cells per animal. The tumors were allowed to grow for several days until they reached the size of approximately […]. At this point, groups of five animals were treated either with vehicle (PBS), PBS containing methyl purine (1.67 mg/kg) or PBS with a higher dose of methyl purine (5.0 mg/kg). Drug or vehicle was injected intratumorally with 3-4 needle passes. Animals were treated with either vehicle or drug one time each day for three days. The growth of the tumors was followed. Measurements in two dimension were used to approximate the overall tumor size. […] For example, purine analogs which are known to have strong cytotoxic activity such as 2-fluoroadenine, 2-fluoroadenosine, 9-[ribosyl]-6-methylpurine, 2-amino-6-chloro-1-deazapurine, 3-deazaguanine, 6-thioguanine, and 6-mercaptopurine can be directly administered to a tumor to cause regression and/or inhibit tumor growth.

[5] = Stability under tissue culture conditions (HPLC of supernatants); conditions: HPLC analysis of supernatants
[6] = target: T1, E. coli PNP (Escherichia coli, UniProt P0ABP8); format: biochemical
T1 sequence (P0ABP8 2-239): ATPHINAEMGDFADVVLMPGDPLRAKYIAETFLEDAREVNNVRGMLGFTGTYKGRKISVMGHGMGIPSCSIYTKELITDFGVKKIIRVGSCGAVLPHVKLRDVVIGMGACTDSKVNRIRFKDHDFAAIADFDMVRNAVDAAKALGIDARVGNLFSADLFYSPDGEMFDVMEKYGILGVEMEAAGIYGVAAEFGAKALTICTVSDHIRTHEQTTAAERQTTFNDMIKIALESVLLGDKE

[7] = target: T2, human PNP (Homo sapiens, UniProt P00491); assay: Cleavage of purine analog nucleosides by human PNP (HPLC); format: biochemical
T2 sequence (P00491 1-289): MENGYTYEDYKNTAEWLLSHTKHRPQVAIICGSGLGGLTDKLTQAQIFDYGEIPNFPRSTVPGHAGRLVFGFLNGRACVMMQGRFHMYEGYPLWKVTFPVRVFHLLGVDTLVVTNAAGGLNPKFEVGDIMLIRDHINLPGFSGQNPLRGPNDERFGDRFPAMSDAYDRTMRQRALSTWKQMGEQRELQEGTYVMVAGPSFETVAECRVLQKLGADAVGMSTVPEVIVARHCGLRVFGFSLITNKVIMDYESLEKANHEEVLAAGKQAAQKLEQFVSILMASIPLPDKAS

[8] = system: tumor cells transduced with the E. coli PNP; assay: Killing of PNP-transduced tumor cells in vitro by other prodrugs; format: cell-based
Source text: In addition to MeP-dR, two other prodrugs suitable for E. coli PNP activation in tumor cells can be applied to the methodology of the present invention. These prodrugs are F-araA and 2-F-2′deoxyadenosine. […] As desired, this dose had no effect on control untransduced, tumor cells.

[9] = target: T1, E. coli PNP
[10] = system: Nc1nc(F)nc2c1ncn2[C@H]1C[C@H](O)[C@@H](CO)O1; assay: purified protein, by the assay type
[11] = system: OC[C@H]1O[C@@H](n2cnc3c(O)ncnc32)[C@H](O)[C@@H]1O; assay: purified protein, by the assay type; conditions: other: enzyme source: Bacteria

Molecule: Cc1ncnc2nc[nH]c12 [MeP, 6-methylpurine, reference compound]
- Time to initial cytopathic effects [1]: ≤ 24 h
- Effect on cells ([1]; MeP 3.75 μM-75 μM, by day 2): cell lysis and complete loss of cellular architecture
- Lethality to Mel-1 cells [2]: ~100%
- Cell numbers relative to original number [3]: approximately 25%
- Tumor growth ([4]; 1.67 mg/kg intratumorally): intermediate effect upon tumor growth
- Tumor growth ([4]; 5.0 mg/kg intratumorally): completely arrested in terms of their growth
- Stability under tissue culture conditions [5]: stable

Molecule: Nc1nc(F)nc2c1ncn2[C@@H]1O[C@H](CO)[C@@H](O)[C@@H]1O [F-araA, 2-F-arabinofuranosyl-adenine]
- Percent of substrate cleaved by E. coli PNP, 100 μM [6]: 3(86) Percent and 5(86) Percent
- Substrate quality for bacterial (E. coli) PNP [6]: moderate substrates; also recorded: poorly cleaved
- Percent of substrate cleaved by Human PNP, 100 μM [7]: 0(88) Percent and 0(86) Percent
- Percent of substrate cleaved by Human PNP, 1 mM [7]: 0(50) Percent and 0(47) Percent
- Substrate quality for mammalian (human) PNP [7]: poor substrates; also recorded: not cleaved
- Killing of PNP-transduced tumor cells in vitro [8]: high level killing
- Killing of transduced versus untransduced tumor cells ([8]; 500 ng/ml): specifically killed transduced, but not untransduced, tumor cells
- Km [9]: 510 µM

Molecule: E. coli PNP (Escherichia coli K-12)
- Km ([10]; other: enzyme source: Bacteria): 44 µM
- Km ([10]; other: enzyme source: D54 cells (transduced)): 38 µM
- Km [11]: 46 µM
